Experimental data from patent US9068970B2, “Efficient and effective supplement screening for the development of chemically defined media in cell culture” (Abbvie Inc., priority 2010, dated 2015).

How the values were obtained:
Format in all cases: cell-based
[1] = system: recombinant IgG producing Chinese Hamster Ovary cell line (CHO cell line #1); assay: 24-well plate media supplement screening: peak viable cell density (CellTiter 96 AQueous); settings: HTS experiments; CDM #1, relative to unsupplemented control
Method: (§1) 24-well plates were utilized at a working volume of 1.5 mL per well to serve as the platform for media supplement screening. An in-house, base chemically defined media (CDM #1) was used as the basal media for the purposes of the experiments. A recombinant IgG producing Chinese Hamster Ovary cell line (CHO cell line #1) was used for the media supplement screening phase of the experiments.
All 24-well plate screening experiments were designed using JMP7 commercially available statistics software (Cary, N.C.) using custom experimental options. Six individual media supplement screening experiments were performed to test over a hundred different supplements in statistically designed experiments and in a serial fashion. All screening experiments were performed at […] cultured at 210 rpm on a shaker table in a 5% humidified CO2 incubator. Gas permeable, rayon film plate covers (VWR International, Radnor, Pa., Catalog #60941-086) were employed as necessary to provide a sterile barrier between the well plates, the plastic plate cover, and the culture atmosphere. Supplement solutions were manually pipetted into the respective plate wells using concentrated, sterile stock solutions. The comprehensive list of media supplements evaluated for cell culture process improvement is shown below in Table 2:
(§2) Two cell culture performance indicators were measured in the high-throughput screening experiments: peak viable cell density and harvest titer. Time point samples were withdrawn from each of the respective plate wells on Days 6, 7, and 8 post inoculation and measured for their respective viable cell densities spectrophotometrically via the CellTiter 96 AQueous Solution Cell Proliferation Assay Kits™ (Promega, Madison, Wis.). Harvest Titer measurements were conducted via high performance liquid chromatography (HPLC) with a Poros A™ affinity column (Applied Biosystems, Foster City, Calif.). All experimental wells supplemented with a particular combination of media compounds were compared to an unsupplemented control, with the results expressed as relative values relative to the control.
(§3) Two cell culture performance indicators were measured in the high-throughput screening experiments as well as media verification experiments; peak viable cell density (VCD) and harvest titer. […] A few days after the last cell count measurement sample the plates were centrifuged and the supernatant was collected and stored at −80° C. for future analysis. Harvest titer measurements were conducted via high performance liquid chromatography (HPLC) with a Poros A™ affinity column (Applied Biosystems, Foster City, Calif.). All experimental wells supplemented with a particular combination of media compounds were compared to an unsupplemented control, with the results expressed as values relative to the control. For the media verification experiments in larger-scale shaker and spinner flasks, viable cell density and viability were measured via Cedex automated cell counters (Roche Applied Science, Indianapolis, Ind.). Harvest titer measurements were similarly measured via HPLC.
(§4) Standard Analysis of Variance (ANOVA) was used to measure the significance of individual supplements and their respective interactions towards the resulting cell culture technique performance. Individual analyses were conducted on both peak viable cell density and harvest titer for each of the respective screening experiments. Three different levels of each media supplement were used in these experiments: unsupplemented (Level 1), lightly supplemented (Level 2), and heavily supplemented (Level 3). […] The optimization subroutine intrinsic to the statistics software was used to analyze the screening dataset determine the identity of a high performance media blend. It is important to note that the selection method is a mathematical exercise which can lead to multiple blends identified as having the highest performance parameters, and the results are highly dependent on the initial first guess.

[2] = system: recombinant IgG producing Chinese Hamster Ovary cell line (CHO cell line #1); assay: 24-well plate media supplement screening: harvest titer (HPLC, Poros A affinity column); settings: HTS experiments; CDM #1, relative to unsupplemented control
Method: as §1
All 24-well plate screening experiments were designed using JMP7 commercially available statistics software (Cary, N.C.) using custom experimental options. Six individual media supplement screening experiments were performed to test over a hundred different supplements in statistically designed experiments and in a serial fashion. […] Supplement solutions were manually pipetted into the respective plate wells using concentrated, sterile stock solutions. The comprehensive list of media supplements evaluated for cell culture process improvement is shown below in Table 2:
as §2, §3, §4
The aforementioned supplements were evaluated for improvements in cell culture technique performance.

[3] = system: recombinant IgG producing Chinese Hamster Ovary cell line (CHO cell line #1); assay: Supplement screening: process performance (peak VCD and/or harvest titer) by inspectional/statistical analysis; settings: univariate analysis of varying supplement concentrations
Method: as §4, with “guess. Three particular high performance blends were identified for further evaluation: […] The supplements whose relative concentrations supported a distinct pattern of either increasing or decreasing process performance were categorized into the clustered classification. […] These supplements were either compounds or groups of similar compounds such as polyamines, essential amino acids, and vitamins.” for “guess.”

[4] = system: recombinant IgG producing Chinese Hamster Ovary cell line (CHO cell line #1); assay: JMP7 statistical identification of high performance media supplementation from a 15-supplement screening experiment; settings: for Concentration Target (Range) for Increase of Harvest Titer / Concentration Target (Range) for Increase of Peak VCD / Concentration Target (Range) for Increase of Peak VCD and Harvest Titer: predicted amount for addition into the unsupplemented control media
Method: as §4
Fifteen of these supplements, or groups of supplements, were screened in a separate statistically designed experiment for the final determination of high performance media blends for the maximization of peak VCD, harvest titer, and both of these variables simultaneously.
The JMP7 statistical software program was further used to identify the high performance media supplementation for maximizing peak VCD, harvest titer, and both simultaneously.

[5] = range given, variability in culture volumes

| Compound | Effect on Peak VCD [1] | Effect on Harvest Titer [2] | Process Performance Pattern [3] | Concentration Target (Range) for Increase of Harvest Titer [4] | Concentration Target (Range) for Increase of Peak VCD [4] | Concentration Target (Range) for Increase of Peak VCD and Harvest Titer [4] | Concentration Range for Increase of Harvest Titer [4, 5] | Concentration Range for Increase of Peak VCD [4, 5] | Concentration Range for Increase of Peak VCD and Harvest Titer [4, 5] |
| --- | --- | --- | --- | --- | --- | --- | --- | --- | --- |
| [Cl-].[Cl-].[Zn+2] [Zinc chloride] | No change | Increase | Clustered | +5.46 × 10^−3 g/L | +2.05 × 10^−3 g/L | +5.12 × 10^−3 g/L | (4.85 × 10^−3-6.22 × 10^−3) g/L | (1.82 × 10^−3-2.33 × 10^−3) g/L | (4.54 × 10^−3-5.83 × 10^−3) g/L |
| OC1C(O)C(O)C(O)C(O)C1O (centres unmarked) [i-inositol] | No change | No change | Wide dispersal | +0.05 (0.05-0.06) g/L | +0.11 (0.09-0.12) g/L | +0.19 (0.17-0.22) g/L | – | – | – |
| OC[C@H]1O[C@@H]2O[C@H]3[C@H](O)[C@@H](O)[C@@H](O[C@H]4[C@H](O)[C@@H](O)[C@@H](O[C@H]5[C@H](O)[C@@H](O)[C@@H](O[C@H]6[C@H](O)[C@@H](O)[C@@H](O[C@H]7[C@H](O)[C@@H](O)[C@@H](O[C@H]1[C@H](O)[C@H]2O)O[C@@H]7CO)O[C@@H]6CO)O[C@@H]5CO)O[C@@H]4CO)O[C@@H]3CO [α-cyclodextrin] | Increase | Increase | Wide dispersal | 0 g/L | +0.16 (0.14-0.18) g/L | 0 g/L | – | – | – |
| OC[C@H]1O[C@@H]2O[C@H]3[C@H](O)[C@@H](O)[C@@H](O[C@H]4[C@H](O)[C@@H](O)[C@@H](O[C@H]5[C@H](O)[C@@H](O)[C@@H](O[C@H]6[C@H](O)[C@@H](O)[C@@H](O[C@H]7[C@H](O)[C@@H](O)[C@@H](O[C@H]8[C@H](O)[C@@H](O)[C@@H](O[C@H]1[C@H](O)[C@H]2O)O[C@@H]8CO)O[C@@H]7CO)O[C@@H]6CO)O[C@@H]5CO)O[C@@H]4CO)O[C@@H]3CO [β-cyclodextrin] | Increase | Increase | Wide dispersal | 0 g/L | +0.16 (0.14-0.18) g/L | 0 g/L | – | – | – |
| Calcium pantothenate | Increase | No change | Wide dispersal | 0 g/L | +0.15 (0.13-0.17) g/L | 0 g/L | – | – | – |
| Manganese chloride | Increase | No change | Wide dispersal | +1.07 × 10^−4 g/L | +6.67 × 10^−5^ g/L | 0 g/L | (9.46 × 10^−5-1.21 × 10^−4) g/L | (5.91 × 10^−5-7.59 × 10^−5) g/L | – |
